Data as given in US20250213550A1, “COMPOUNDS AND METHODS FOR TREATING INFLAMMATORY BOWEL DISEASE” (Gilead Sciences, Inc., priority 2023, published 2025).
Where two headings read alike, the source gives them in different places.

System: LPS-stimulated pERK in monocytes (TPL2 pathway)
Test: Ex vivo LPS-stimulated pERK in monocytes of whole blood after Compound 1 dosing (flow cytometry)
Parameters: species or system human
Conditions: for inhibition at 300 mg / inhibition at 600 mg / inhibition at 900 mg / inhibition at 75 mg: Homo sapiens, Monocyte; for inhibition at 75 mg: 75 mg QD multiple dose
Protocol: For Cohorts 1-4, whole blood PD sampling occurred relative to the dose of Compound 1 at the following time points: • Day 1: 0 pre-dose (≤5 min prior to dosing), 1, 2, 3, 4, 8, 12, 24 and 36 hours post-dose
For Cohorts 5-9, whole blood PD sampling occurred relative to the dose of Compound 1 at the following time points: • Day 1: 0 pre-dose (≤5 min prior to dosing), 1, 2, 3, 4, 8, 12, and 24 hours post-dose • Day 10: 0 pre-dose (≤5 min prior to dosing), 1, 2, 3, 4, 8, 12, 24, 36, 48, 72, 96, and 120 hours post-dose
Whole blood PD Samples were stimulated ex vivo with lipopolysaccharide (LPS) or phosphate buffered saline (PBS), and the phosphorylation of extracellular signal-related kinase (pERK) was detected in monocytes by flow cytometry.
Pharmacodynamic changes after single and multiple doses of Compound 1 were also investigated by monitoring, in whole blood samples, stimulated with either lipopolysaccharide (LPS) or PBS for 15 minutes at 37° C. Changes to the phosphorylation of extracellular signal-regulated kinases (pERK) was measured in monocytes by flow cytometry, defined as CD15−CD14+.
Pharmacodynamic parameters for Compound 1 were calculated as percent change in pERK signal relative to Day 1 pre-dose (baseline) for all evaluable participants.
Multiple Ascending Doses: Pharmacodynamic parameters after multiple doses of Compound 1 were also calculated as percent change in pERK signal relative to Day 1 pre-dose (baseline) for all evaluable participants.

Cn1ccc2c([C@@H](c3cn(C45CC(C4)C5)nn3)N(C(=O)OCOP(=O)(O)O)c3cc(Cl)c4ncc(C#N)c(NCC(C)(C)C)c4c3)cccc2c1=O [Compound 1]
inhibition at 300 mg (300 mg QD multiple dose, Day 1 1 hour, mean (SD), read-out: pERK Signal, % Inhibition): 89.1%
inhibition at 300 mg (300 mg QD multiple dose, Day 1 1 hour, median, read-out: pERK Signal, % Inhibition): 93.8%
inhibition at 300 mg (300 mg QD multiple dose, Day 1 3 hours, mean (SD), read-out: pERK Signal, % Inhibition): 95.7%
inhibition at 300 mg (300 mg QD multiple dose, Day 1 3 hours, median, read-out: pERK Signal, % Inhibition): 97.1%
inhibition at 300 mg (300 mg QD multiple dose, Day 1 12 hours, mean (SD), read-out: pERK Signal, % Inhibition): 75.3%
inhibition at 300 mg (300 mg QD multiple dose, Day 1 12 hours, median, read-out: pERK Signal, % Inhibition): 74.3%
inhibition at 300 mg (300 mg QD multiple dose, Day 10 1 hour, mean (SD), read-out: pERK Signal, % Inhibition): 96.8%
inhibition at 300 mg (300 mg QD multiple dose, Day 10 1 hour, median, read-out: pERK Signal, % Inhibition): 97.1%
inhibition at 300 mg (300 mg QD multiple dose, Day 10 3 hours, mean (SD), read-out: pERK Signal, % Inhibition): 98.3%
inhibition at 300 mg (300 mg QD multiple dose, Day 10 3 hours, median, read-out: pERK Signal, % Inhibition): 98.7%
inhibition at 300 mg (300 mg QD multiple dose, Day 10 12 hours, mean (SD), read-out: pERK Signal, % Inhibition): 94%
inhibition at 300 mg (300 mg QD multiple dose, Day 10 12 hours, median, read-out: pERK Signal, % Inhibition): 95.7%
inhibition at 300 mg (300 mg QD multiple dose, Day 10 24 hours, mean (SD), read-out: pERK Signal, % Inhibition): 92.2%
inhibition at 300 mg (300 mg QD multiple dose, Day 10 24 hours, median, read-out: pERK Signal, % Inhibition): 91.6%
inhibition at 600 mg (600 mg BID multiple dose, Day 1 1 hour, mean (SD), read-out: pERK Signal, % Inhibition): 79.9%
inhibition at 600 mg (600 mg BID multiple dose, Day 1 1 hour, median, read-out: pERK Signal, % Inhibition): 74.3%
inhibition at 600 mg (600 mg BID multiple dose, Day 1 3 hours, mean (SD), read-out: pERK Signal, % Inhibition): 99.9%
inhibition at 600 mg (600 mg BID multiple dose, Day 1 3 hours, median, read-out: pERK Signal, % Inhibition): 99.9%
inhibition at 600 mg (600 mg BID multiple dose, Day 1 12 hours, mean (SD), read-out: pERK Signal, % Inhibition): 84.2%
inhibition at 600 mg (600 mg BID multiple dose, Day 1 12 hours, median, read-out: pERK Signal, % Inhibition): 91%
inhibition at 600 mg (600 mg BID multiple dose, Day 10 1 hour, mean (SD), read-out: pERK Signal, % Inhibition): 99.5%
inhibition at 600 mg (600 mg BID multiple dose, Day 10 1 hour, median, read-out: pERK Signal, % Inhibition): 100%
inhibition at 600 mg (600 mg BID multiple dose, Day 10 3 hours, mean (SD), read-out: pERK Signal, % Inhibition): 100%
inhibition at 600 mg (600 mg BID multiple dose, Day 10 3 hours, median, read-out: pERK Signal, % Inhibition): 100%
inhibition at 600 mg (600 mg BID multiple dose, Day 10 12 hours, mean (SD), read-out: pERK Signal, % Inhibition): 100%
inhibition at 600 mg (600 mg BID multiple dose, Day 10 12 hours, median, read-out: pERK Signal, % Inhibition): 100%
inhibition at 600 mg (600 mg BID multiple dose, Day 10 24 hours, mean (SD), read-out: pERK Signal, % Inhibition): 103%
inhibition at 600 mg (600 mg BID multiple dose, Day 10 24 hours, median, read-out: pERK Signal, % Inhibition): 102%
inhibition at 900 mg (900 mg QD multiple dose, Day 1 1 hour, mean (SD), read-out: pERK Signal, % Inhibition): 88.9%
inhibition at 900 mg (900 mg QD multiple dose, Day 1 1 hour, median, read-out: pERK Signal, % Inhibition): 95%
inhibition at 900 mg (900 mg QD multiple dose, Day 1 3 hours, mean (SD), read-out: pERK Signal, % Inhibition): 99.8%
inhibition at 900 mg (900 mg QD multiple dose, Day 1 3 hours, median, read-out: pERK Signal, % Inhibition): 99.6%
inhibition at 900 mg (900 mg QD multiple dose, Day 1 12 hours, mean (SD), read-out: pERK Signal, % Inhibition): 95.2%
inhibition at 900 mg (900 mg QD multiple dose, Day 1 12 hours, median, read-out: pERK Signal, % Inhibition): 95.3%
inhibition at 900 mg (900 mg QD multiple dose, Day 10 1 hour, mean (N=1), read-out: pERK Signal, % Inhibition): 99.4%
inhibition at 900 mg (900 mg QD multiple dose, Day 10 1 hour, median (N=1), read-out: pERK Signal, % Inhibition): 99.4%
inhibition at 900 mg (900 mg QD multiple dose, Day 10 3 hours, mean (N=1), read-out: pERK Signal, % Inhibition): 99.6%
inhibition at 900 mg (900 mg QD multiple dose, Day 10 3 hours, median (N=1), read-out: pERK Signal, % Inhibition): 99.6%
inhibition at 900 mg (900 mg QD multiple dose, Day 10 12 hours, mean (N=1), read-out: pERK Signal, % Inhibition): 96.7%
inhibition at 900 mg (900 mg QD multiple dose, Day 10 12 hours, median (N=1), read-out: pERK Signal, % Inhibition): 96.7%
inhibition at 900 mg (900 mg QD multiple dose, Day 10 24 hours, mean (SD), read-out: pERK Signal, % Inhibition): 98.3%
inhibition at 900 mg (900 mg QD multiple dose, Day 10 24 hours, median, read-out: pERK Signal, % Inhibition): 98.5%
inhibition at 75 mg (24 h, Day 1 24 hours, mean (SD), read-out: pERK Signal, % Inhibition): 1%
inhibition at 75 mg (24 h, Day 1 24 hours, median, read-out: pERK Signal, % Inhibition): 4.4%
inhibition at 300 mg (24 h, 300 mg QD multiple dose, Day 1 24 hours, mean (SD), read-out: pERK Signal, % Inhibition): 72.9%
inhibition at 300 mg (24 h, 300 mg QD multiple dose, Day 1 24 hours, median, read-out: pERK Signal, % Inhibition): 71.5%
inhibition at 300 mg (24 h, 300 mg QD, steady state, 24 hours post-last dose, read-out: inhibition of LPS-stimulated pERK): > 90%
inhibition at 600 mg (24 h, 600 mg BID multiple dose, Day 1 24 hours, mean (SD), read-out: pERK Signal, % Inhibition): 97.6%
inhibition at 600 mg (24 h, 600 mg BID multiple dose, Day 1 24 hours, median, read-out: pERK Signal, % Inhibition): 99.5%
inhibition at 600 mg (24 h, 600 mg BID, steady state, 24 hours post-last dose, read-out: inhibition of LPS-stimulated pERK): > 90%
inhibition at 900 mg (24 h, 900 mg QD multiple dose, Day 1 24 hours, mean (SD), read-out: pERK Signal, % Inhibition): 90.2%
inhibition at 900 mg (24 h, 900 mg QD multiple dose, Day 1 24 hours, median, read-out: pERK Signal, % Inhibition): 89.9%
inhibition at 900 mg (24 h, 900 mg QD, steady state, 24 hours post-last dose, read-out: inhibition of LPS-stimulated pERK): > 90%
inhibition at 75 mg (240 h, Day 10 predose, mean (SD), read-out: pERK Signal, % Inhibition): 24.4%
inhibition at 75 mg (240 h, Day 10 predose, median, read-out: pERK Signal, % Inhibition): 41.3%
inhibition at 300 mg (240 h, 300 mg QD multiple dose, Day 10 predose, mean (SD), read-out: pERK Signal, % Inhibition): 93.5%
inhibition at 300 mg (240 h, 300 mg QD multiple dose, Day 10 predose, median, read-out: pERK Signal, % Inhibition): 93.4%
inhibition at 600 mg (240 h, 600 mg BID multiple dose, Day 10 predose, mean (SD), read-out: pERK Signal, % Inhibition): 98.6%
inhibition at 600 mg (240 h, 600 mg BID multiple dose, Day 10 predose, median, read-out: pERK Signal, % Inhibition): 100%
inhibition at 900 mg (240 h, 900 mg QD multiple dose, Day 10 predose, mean (N=1), read-out: pERK Signal, % Inhibition): 97.1%
inhibition at 900 mg (240 h, 900 mg QD multiple dose, Day 10 predose, median (N=1), read-out: pERK Signal, % Inhibition): 97.1%
inhibition of LPS-stimulated pERK in ex vivo whole blood samples (SAD and MAD cohorts): dose-dependent and reversible inhibition
time of peak inhibition of LPS-stimulated pERK (single oral doses, fasted, all dosages, post-dose): 3 hours
